From patent US20250345287A1, “COMPOSITION COMPRISING A MIXTURE OF AT LEAST ONE OIL AND ONE OR MORE SEMIFLUORINATED ALKANES, A USE OF THE COMPOSITION FOR TREATING A DISEASE AS WELL AS A METHOD OF PRODUCING THE COMPOSITION AND CORRESPONDING KITS” (Fluoron GmbH, priority 2024, published 2025)
Read-outs that look alike come from different tables or passages of the source.

Assay: Drug solubility/uptake in VitreoDens, posterior segment model
Experimental: Drugs were dissoluted in BSS in clinically relevant concentrations and placed in direct contact with VitreoDens in a ratio of 1:9. 50 μl of the hydrophilic phase were removed from the experiment after 1, 6 and 24 hours and drug concentration was determined using HPLC.
For all the tested small molecule drugs HPLC or HPLC-MS (Agilent 1100 Series) with a reversed-phase C18 column (Chromolith® Performance RP-18e, Merck KGaA Darmstadt, Germany) was performed. Calibration curves and exemplary HPLC runs for each active substance are presented in the Supplementary Materials.
Thus, the solubility of a variety of drugs was tested in VitreoDens in an established posterior segment model (FIGS. 7A and 7B) A >90% fill is mostly thought of as a sufficient fill. Thus, this ratio, given a vitreous cavity volume of 5 ml, was recreated in negatively charged glass vials. First, the drug is injected into the hydrophilic phase at a certain concentration, aliquots of the hydrophilic phase are recovered after certain time points to assess the distribution of the drug in the hydrophilic phase and in VitreoDens (FIG. 7A).

Row | SMILES | solubility in VitreoDens | solubility in VitreoDens (in-vitro, posterior segment model, FIG. 7C)
1 | C[C@@H](c1ncncc1F)[C@](O)(Cn1cncn1)c1ccc(F)cc1F [voriconazole] | excellent solubility | 
2 | O=c1[nH]cc(F)c(=O)[nH]1 [5-Fluoruracil] |  | excellent solubility
3 | C=CC[C@@H]1/C=C(\C)C[C@H](C)C[C@H](OC)[C@H]2O[C@@](O)(C(=O)C(=O)N3CCCC[C@H]3C(=O)O[C@H](/C(C)=C/[C@@H]3CC[C@@H](O)[C@H](OC)C3)[C@H](C)[C@@H](O)CC1=O)[C@H](C)C[C@@H]2OC [Tacrolimus] | excellent solubility | 
4 | CC(=O)[C@]1(O)Cc2c(O)c3c(c(O)c2[C@@H](O[C@H]2C[C@H](N)[C@H](O)[C@H](C)O2)C1)C(=O)c1ccccc1C3=O [Idarubicin] | excellent solubility | 
